A word on the EC50: it is the midpoint of the concentration-response curve. Read a low EC50 as greater potency. In general, CC50 refers to the concentration giving 50% cytotoxicity. Low values mean greater toxicity to the cells, high ones lower toxicity to the cells.

The source of these data is patent US12264159B2, “Functionalized heterocycles as antiviral agents” (Enanta Pharmaceuticals, Inc., priority 2018, dated 2025).

Series [1] relates to HBV in 2.2.15 cells. The series can be described thus: 2.2.15 cells: viral product in cell lysates quantified via quantitative real time PCR. Format: cell-based, hepatitis B virus (HBV). As to conditions: Hepatitis B virus, 120 h, day 5 post treatment, 50% reduction of viral product vs no drug controls, readout (qPCR, HBsAg or HBeAg) not specified for the column. The procedure, abridged: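 2.2.15 cells (35,000/well, DMEM/F12, 10% FBS, G418) were treated with 5-fold serial compound dilutions, 0.5% DMSO final. After 5 days, lysates were quantified by qPCR, or supernatant HBsAg/HBeAg by ELISA; EC50 is the concentration giving 50% reduction versus no-drug controls.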
(Quantitative PCR measures a nucleic acid by following its amplification.)

Series [2] is described as follows: Compound induced cellular toxicity in HepG2 cells, ATPlite 1Step. Format: cell-based. As to conditions: human, three days exposure, 50% reduction of total ATP vs no drug controls. Here is the method: At day 3, post seeding cells are treated with ATPlite 1Step according to the manufacturer's instructions.
On the technique in general: Cellular ATP, detected with luciferase, serves as a proxy for viable cell number.

On to `CC(C)(C)[C@@H]1Cn2ncc(-c3ccco3)c2-c2cc(=O)c(C(=O)O)cn21` [Example 108, (R)-6-(tert-butyl)-1-(furan-2-yl)-10-oxo-5,6-dihydro-10H-pyrazolo[1,5-a]pyrido[2,1-c]pyrazine-9-carboxylic acid], for which the EC50 in series [1] is below 0.1 µM. In addition, the CC50 at 3 days in series [2] lay within 10 to 25 µM.
In turn, `CC(C)(C)[C@@H]1Cn2nc(-c3cccc4cn[nH]c34)cc2-c2cc(=O)c(C(=O)O)cn21` [Example 67, (R)-6-(tert-butyl)-2-(1H-indazol-7-yl)-10-oxo-5,6-dihydro-10H-pyrazolo[1,5-a]pyrido[2,2-c]pyrazine-12-carboxylic acid] came in with an EC50 in series [1] below 0.1 µM. Further, the CC50 at 3 days in series [2] was above 25 µM.
Consider `CC(C)[C@@H]1Cn2nc(-c3ccc(O)cc3)c(-c3ccc(O)cc3)c2-c2cc(=O)c(C(=O)O)cn21` [Example 172, (R)-1,2-bis(4-hydroxyphenyl)-6-isopropyl-10-oxo-5,6-dihydro-10H-pyrazolo[1,5-a]pyrido[2,1-c]pyrazine-9-carboxylic acid], for which, in series [1], the EC50 is below 0.1 µM. For the same compound, the CC50 at 3 days in series [2] was above 25 µM.
`CC(C)(C)[C@@H]1Cn2nc(-c3cccc4c3OC(F)(F)O4)c(Cl)c2-c2cc(=O)c(C(=O)O)cn21` [Example 88, (R)-6-(tert-butyl)-1-chloro-2-(2,2-difluorobenzo[d][1,3]dioxol-4-yl)-10-oxo-5,6-dihydro-10H-pyrazolo[1,5-a]pyrido[2,1-c]pyrazine-9-carboxylic acid]: the EC50 in series [1] was below 0.1 µM. The compound further registered a CC50 at 3 days in series [2] above 25 µM.
For `CC(C)(C)[C@@H]1Cn2nc(-c3cc(F)c(F)cc3O)cc2-c2cc(=O)c(C(=O)O)cn21` [Example 66, (R)-6-(tert-butyl)-2-(4,5-difluoro-2-hydroxyphenyl)-10-oxo-5,6-dihydro-10H-pyrazolo[1,5-a]pyrido[2,2-c]pyrazine-12-carboxylic acid], in that order: below 0.1 µM and above 25 µM.
For `CC(C)(C)[C@@H]1Cn2nc(-c3ccc(F)cc3)c(-c3cccc(F)c3)c2-c2cc(=O)c(C(=O)O)cn21` [Example 168, (R)-6-(tert-butyl)-1-(3-fluorophenyl)-2-(4-fluorophenyl)-10-oxo-5,6-dihydro-10H-pyrazolo[1,5-a]pyrido[2,1-c]pyrazine-9-carboxylic acid], in that order: below 0.1 µM and 10 to 25 µM.
For `Cc1cccc(-c2c(C3CC3)nn3c2-c2cc(=O)c(C(=O)O)cn2[C@H](C(C)(C)C)C3)c1` [Example 153, (R)-6-(tert-butyl)-2-cyclopropyl-10-oxo-1-(m-tolyl)-5,6-dihydro-10H-pyrazolo[1,5-a]pyrido[2,1-c]pyrazine-9-carboxylic acid], in that order: below 0.1 µM and 10 to 25 µM.
`CC(C)(C)[C@@H]1Cn2nc(C3CC3)c(-c3cnsc3)c2-c2cc(=O)c(C(=O)O)cn21` [Example 162, (R)-6-(tert-butyl)-2-cyclopropyl-1-(isothiazol-4-yl)-10-oxo-5,6-dihydro-10H-pyrazolo[1,5-a]pyrido[2,1-c]pyrazine-9-carboxylic acid] came in with an EC50 in series [1] below 0.1 µM. Moreover, the CC50 at 3 days in series [2] was above 25 µM.
For `CC(C)(C)[C@@H]1Cn2nc(-c3cccc4nonc34)cc2-c2cc(=O)c(C(=O)O)cn21` [Example 58, (R)-2-(benzo[c][1,2,5]oxadiazol-4-yl)-6-(tert-butyl)-10-oxo-5,6-dihydro-10H-pyrazolo[1,5-a]pyrido[2,2-c]pyrazine-12-carboxylic acid], in that order: below 0.1 µM and above 25 µM.
`COc1cc(-c2cc3n(n2)C[C@@H](C(C)(C)C)n2cc(C(=O)O)c(=O)cc2-3)c(OC)nn1` [Example 16, (R)-6-(tert-butyl)-2-(3,6-dimethoxypyridazin-4-yl)-10-oxo-5,6-dihydro-10H-pyrazolo[1,5-a]pyrido[2,2-c]pyrazine-12-carboxylic acid] yielded an EC50 in series [1] below 0.1 µM. The compound further came in with a CC50 at 3 days in series [2] above 25 µM.
